Data taken from ChEMBL document CHEMBL5108078, “Design and Synthesis of Phenyl Sulfide-Based Cationic Amphiphiles as Membrane-Targeting Antimicrobial Agents against Gram-Positive Pathogens” (J Med Chem, 2022).
Converted amounts (≈) assume the structure as drawn.

What was measured:
Staphylococcus aureus [1] = experiment: Antibacterial activity against methicillin resistant Staphylococcus aureus NCTC10442 assessed as inhibition of bacterial growth incubated for 24 hrs by microbroth dilution method; assay type: functional
Staphylococcus aureus [2] = experiment: Antibacterial activity against Staphylococcus aureus ATCC 29213 assessed as inhibition of bacterial growth incubated for 24 hrs by microbroth dilution method; assay type: functional
Staphylococcus aureus [3] = experiment: Antibacterial activity against methicillin resistant Staphylococcus aureus N315 assessed as inhibition of bacterial growth incubated for 24 hrs by microbroth dilution method; assay type: functional
[4] = Hemolytic activity in rabbit RBC incubated for 1 hr by microplate reader analysis; assay type: toxicity, cell-based, Oryctolagus cuniculus, Erythrocyte; details: rabbit red blood cells (erythrocytes)
Staphylococcus aureus [5] = experiment: Induction of resistant development in Staphylococcus aureus ATCC 29213 assessed as fold increase in MIC at 0.5 MIC after 12 passages by resistant development assay; assay type: functional
[6] = system: Staphylococcus epidermidis; experiment: Antibacterial activity against Staphylococcus epidermidis ATCC 12228 assessed as inhibition of bacterial growth incubated for 24 hrs by microbroth dilution method; assay type: functional
Staphylococcus aureus [7] = experiment: Antibacterial activity against Staphylococcus aureus ATCC 15981 assessed as inhibition of bacterial growth incubated for 24 hrs by microbroth dilution method; assay type: functional
Enterococcus faecalis = experiment: Antibacterial activity against Enterococcus faecalis ATCC 29212 assessed as inhibition of bacterial growth incubated for 24 hrs by microbroth dilution method; assay type: functional
[8] = system: Staphylococcus epidermidis; experiment: Antibacterial activity against Staphylococcus epidermidis CMCC26069 assessed as inhibition of bacterial growth incubated for 24 hrs by microbroth dilution method; assay type: functional
Bacillus subtilis = experiment: Antibacterial activity against Bacillus subtilis CMCC63501 assessed as inhibition of bacterial growth incubated for 24 hrs by microbroth dilution method; assay type: functional

Row | SMILES | MIC (Staphylococcus aureus [1]) [µg/mL] | MIC (Staphylococcus aureus [2]) [µg/mL] | MIC (Staphylococcus aureus [3]) [µg/mL] | HC50 at 1 h [4] [µg/mL] | fold change (FC) (Staphylococcus aureus [5]) | MIC [6] [µg/mL] | MIC (Staphylococcus aureus [7]) [µg/mL] | MIC (Enterococcus faecalis) [µg/mL] | MIC [8] [µg/mL] | MIC (Bacillus subtilis) [µg/mL]
1 | CCNCCCCOc1ccc(C(C)(C)CC(C)(C)C)cc1Sc1cc(C(C)(C)CC(C)(C)C)ccc1OCCCCNCC | 1.56 (≈ 2.43 µM) | 1.56 (≈ 2.43 µM) | 1.56 (≈ 2.43 µM) | 30.8 |  |  |  |  |  | 
2 | Oc1ccc(Cl)cc1Sc1cc(Cl)ccc1O [FENTICLOR] | > 50 | > 50 | > 50 | > 200 |  |  |  |  |  | 
3 | CC(C)(C)CC(C)(C)c1ccc(O)c(Sc2cc(C(C)(C)CC(C)(C)C)ccc2OCC(=O)N[C@@H](CCCNC(=N)N)C(N)=O)c1 | 12.5 (≈ 19.1 µM) | 12.5 (≈ 19.1 µM) | 12.5 (≈ 19.1 µM) | > 200 |  |  |  |  |  | 
4 | CC(C)(C)CC(C)(C)c1ccc(OCCCCN2CCSCC2)c(Sc2cc(C(C)(C)CC(C)(C)C)ccc2OCCCCN2CCSCC2)c1 | > 50 | > 50 | > 50 | > 200 |  |  |  |  |  | 
5 | COC(=O)[C@H](CCCNC(=N)N)NC(=O)[C@H](CCCNC(=N)N)NC(=O)[C@H](CCCNC(=N)N)NC(=O)COc1ccc(C(C)(C)CC(C)(C)C)cc1Sc1cc(C(C)(C)CC(C)(C)C)ccc1OCC(=O)N[C@@H](CCCNC(=N)N)C(=O)N[C@@H](CCCNC(=N)N)C(=O)N[C@@H](CCCNC(=N)N)C(=O)OC | 3.12 (≈ 2.05 µM) | 6.25 (≈ 4.1 µM) | 6.25 (≈ 4.1 µM) | > 200 |  |  |  |  |  | 
6 | CC(C)(C)CC(C)(C)c1ccc(OCCCCNC(=N)N)c(Sc2cc(C(C)(C)CC(C)(C)C)ccc2OCCCCNC(=N)N)c1 | 3.12 (≈ 4.67 µM) | 3.12 (≈ 4.67 µM) | 3.12 (≈ 4.67 µM) | > 200 |  |  |  |  |  | 
7 | CCn1cc(C(=O)O)c(=O)c2cc(F)c(N3CCNCC3)cc21 |  |  |  |  | 32 |  |  |  |  | 
8 | CN1CCN(CCCCOc2ccc(C(C)(C)CC(C)(C)C)cc2Sc2cc(C(C)(C)CC(C)(C)C)ccc2OCCCCN2CCN(C)CC2)CC1 | 12.5 (≈ 16.6 µM) | 12.5 (≈ 16.6 µM) | 12.5 (≈ 16.6 µM) | > 200 |  |  |  |  |  | 
9 | CC(C)(C)CC(C)(C)c1ccc(OCCCCBr)c(Sc2cc(C(C)(C)CC(C)(C)C)ccc2OCCCCBr)c1 | > 50 | > 50 | > 50 | > 200 |  |  |  |  |  | 
10 | CCN(CC)CCCCOc1ccc(C(C)(C)CC(C)(C)C)cc1Sc1cc(C(C)(C)CC(C)(C)C)ccc1OCCCCN(CC)CC | 3.12 (≈ 4.48 µM) | 3.12 (≈ 4.48 µM) | 1.56 (≈ 2.24 µM) | 67.9 |  |  |  |  |  | 
11 | COC(=O)[C@H](CCCNC(=N)N)NC(=O)[C@H](CCCNC(=N)N)NC(=O)COc1c(Sc2cc(C)cc(C(C)(C)C)c2OCC(=O)N[C@@H](CCCNC(=N)N)C(=O)N[C@@H](CCCNC(=N)N)C(=O)OC)cc(C)cc1C(C)(C)C | 1.56 (≈ 1.38 µM) | 1.56 (≈ 1.38 µM) | 1.56 (≈ 1.38 µM) | > 200 |  | 0.78 (≈ 0.692 µM) | 1.56 (≈ 1.38 µM) | 25 (≈ 22.2 µM) | 0.78 (≈ 0.692 µM) | 0.78 (≈ 0.692 µM)
12 | CCCCN(CCCC)CCCCOc1ccc(C(C)(C)CC(C)(C)C)cc1Sc1cc(C(C)(C)CC(C)(C)C)ccc1OCCCCN(CCCC)CCCC | > 50 | > 50 | > 50 | > 200 |  |  |  |  |  | 
13 | Cc1cc(Sc2cc(C)cc(C(C)(C)C)c2OCC(=O)N[C@@H](CCCNC(=N)N)C(N)=O)c(OCC(=O)N[C@@H](CCCNC(=N)N)C(N)=O)c(C(C)(C)C)c1 | 12.5 (≈ 15.9 µM) | 25 (≈ 31.8 µM) | 12.5 (≈ 15.9 µM) | > 200 |  |  |  |  |  | 
14 | CC(C)(C)CC(C)(C)c1ccc(O)c(Sc2cc(C(C)(C)CC(C)(C)C)ccc2O)c1 | > 50 | > 50 | > 50 | > 200 |  |  |  |  |  | 
15 | CN(C)CCCCOc1ccc(C(C)(C)CC(C)(C)C)cc1Sc1cc(C(C)(C)CC(C)(C)C)ccc1OCCCCN(C)C | 1.56 (≈ 2.43 µM) | 1.56 (≈ 2.43 µM) | 1.56 (≈ 2.43 µM) | 23.2 |  |  |  |  |  | 
16 | CC(C)(C)CC(C)(C)c1ccc(OCCCCN2CCCCC2)c(Sc2cc(C(C)(C)CC(C)(C)C)ccc2OCCCCN2CCCCC2)c1 | 25 (≈ 34.7 µM) | 12.5 (≈ 17.3 µM) | 12.5 (≈ 17.3 µM) | > 200 |  |  |  |  |  | 
17 | Cc1cc(Sc2cc(C)cc(C(C)(C)C)c2O)c(O)c(C(C)(C)C)c1 | > 50 | > 50 | > 50 | > 200 |  |  |  |  |  | 
18 | CCCN(CCC)CCCCOc1ccc(C(C)(C)CC(C)(C)C)cc1Sc1cc(C(C)(C)CC(C)(C)C)ccc1OCCCCN(CCC)CCC | > 50 | > 50 | > 50 | > 200 |  |  |  |  |  | 
19 | COC(=O)[C@H](CCCNC(=N)N)NC(=O)[C@H](CCCNC(=N)N)NC(=O)COc1ccc(C(C)(C)CC(C)(C)C)cc1Sc1cc(C(C)(C)CC(C)(C)C)ccc1OCC(=O)N[C@@H](CCCNC(=N)N)C(=O)N[C@@H](CCCNC(=N)N)C(=O)OC | 3.12 (≈ 2.58 µM) | 1.56 (≈ 1.29 µM) | 1.56 (≈ 1.29 µM) | > 200 |  | 1.56 (≈ 1.29 µM) | 3.12 (≈ 2.58 µM) | 3.12 (≈ 2.58 µM) | 1.56 (≈ 1.29 µM) | 1.56 (≈ 1.29 µM)
20 | COC(=O)[C@H](CCCNC(=N)N)NC(=O)COc1c(Sc2cc(C)cc(C(C)(C)C)c2OCC(=O)N[C@@H](CCCNC(=N)N)C(=O)OC)cc(C)cc1C(C)(C)C | 3.12 (≈ 3.83 µM) | 3.12 (≈ 3.83 µM) | 1.56 (≈ 1.91 µM) | > 200 |  | 0.78 (≈ 0.957 µM) | 1.56 (≈ 1.91 µM) | 12.5 (≈ 15.3 µM) | 0.78 (≈ 0.957 µM) | 1.56 (≈ 1.91 µM)
21 | CC(C)(C)CC(C)(C)c1ccc(OCC(=O)N[C@@H](CCCNC(=N)N)C(=O)N[C@@H](CCCNC(=N)N)C(N)=O)c(Sc2cc(C(C)(C)CC(C)(C)C)ccc2OCC(=O)N[C@@H](CCCNC(=N)N)C(=O)N[C@@H](CCCNC(=N)N)C(N)=O)c1 | 6.25 (≈ 5.29 µM) | 6.25 (≈ 5.29 µM) | 6.25 (≈ 5.29 µM) | > 200 |  |  |  |  |  | 
22 | COC(=O)[C@H](CCCNC(=N)N)NC(=O)COc1ccc(C(C)(C)CC(C)(C)C)cc1Sc1cc(C(C)(C)CC(C)(C)C)ccc1O | 1.56 (≈ 2.33 µM) | 12.5 (≈ 18.6 µM) | 3.12 (≈ 4.66 µM) | 130 |  |  |  |  |  | 
23 | COC(=O)[C@H](CCCCN)NC(=O)COc1ccc(C(C)(C)CC(C)(C)C)cc1Sc1cc(C(C)(C)CC(C)(C)C)ccc1OCC(=O)N[C@@H](CCCCN)C(=O)OC | 3.12 (≈ 3.71 µM) | 3.12 (≈ 3.71 µM) | 1.56 (≈ 1.85 µM) | 162 |  |  |  |  |  | 
24 | CCCCNCCCCOc1ccc(C(C)(C)CC(C)(C)C)cc1Sc1cc(C(C)(C)CC(C)(C)C)ccc1OCCCCNCCCC | 6.25 (≈ 8.96 µM) | 6.25 (≈ 8.96 µM) | 6.25 (≈ 8.96 µM) | 41.5 |  |  |  |  |  | 
25 | CCOC(=O)COc1ccc(C(C)(C)CC(C)(C)C)cc1Sc1cc(C(C)(C)CC(C)(C)C)ccc1O | > 50 | > 50 | > 50 | > 200 |  |  |  |  |  | 
26 | CCOC(=O)COc1ccc(C(C)(C)CC(C)(C)C)cc1Sc1cc(C(C)(C)CC(C)(C)C)ccc1OCC(=O)OCC | > 50 | > 50 | > 50 | > 200 |  |  |  |  |  | 
27 | CC(C)(C)CC(C)(C)c1ccc(OCC(=O)N[C@@H](CCCNC(=N)N)C(N)=O)c(Sc2cc(C(C)(C)CC(C)(C)C)ccc2OCC(=O)N[C@@H](CCCNC(=N)N)C(N)=O)c1 | 3.12 (≈ 3.6 µM) | 3.12 (≈ 3.6 µM) | 1.56 (≈ 1.79 µM) | 183 |  |  |  |  |  | 
28 | CCCCCCNCCCCOc1ccc(C(C)(C)CC(C)(C)C)cc1Sc1cc(C(C)(C)CC(C)(C)C)ccc1OCCCCNCCCCCC | > 50 | > 50 | > 50 | > 200 |  |  |  |  |  | 
29 | COC(=O)[C@H](CCCNC(=N)N)NC(=O)COc1ccc(Cl)cc1Sc1cc(Cl)ccc1OCC(=O)N[C@@H](CCCNC(=N)N)C(=O)OC | 12.5 (≈ 16.8 µM) | 25 (≈ 33.6 µM) | 12.5 (≈ 16.8 µM) | > 200 |  |  |  |  |  | 
